The values that follow come from patent publication US3940248A, “Method for inhibiting corrosion of metal” (Otsuka Kagaku Yakuhin Kabushiki Kaisha, priority 1972, dated 1976).

Usually LD50 stands for the dose at which mortality reaches 50%.

Data set [1] in a line: in vivo. The conditions noted are these: rat, po.
Procedure: The LD50 test was conducted using male Wistar rats after 24 hours' fasting weighing 150 g, each 10 rats as a group.
Data set [2] relates to male Wistar rats. The following applies: sodium nitrite, as determined in rats; cited from earlier work.

Take `Cc1cc(O)c2nncn2n1`: in data set [1], the 50% lethal dose (LD50) is around 3750 mg/kg.

Take `O=NO` [Sodium nitrite]: the LD50 in data set [2] is reported as 85 mg/kg.
